Reference: ChEMBL document CHEMBL1201862, “PubChem BioAssay data set” (2004)
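All cell lines were grown in 96-well plates and treated with compound for 48 hours. The concentration for 50% growth inhibition is given as GI50.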 Active and inactive are the calls of the source. Rule as the data show it: active = GI50 up to about 1.1 µM and inactive = higher.

Key:
Test in all cases: NCI tumour cell line growth inhibition, 48 h
OVCAR-4 = system: OVCAR-4
IGROV-1 = system: IGROV-1
DMS-273 = system: DMS-273
SF-539 = system: SF-539
TK-10 = system: TK-10
OVCAR-8 = system: OVCAR-8
OVCAR-5 = system: OVCAR-5
U-251 = system: U-251
KM-20L2 = system: KM-20L2
NCI-H226 = system: NCI-H226
HOP-62 = system: HOP-62
A549 = system: A549
HCT-116 = system: HCT-116
UACC-62 = system: UACC-62
M14 = system: M14
DMS-114 = system: DMS-114
HOP-92 = system: HOP-92
HT-29 = system: HT-29
RXF 631 = system: RXF 631
NCI-H460 = system: NCI-H460
SF-295 = system: SF-295
HCT-15 = system: HCT-15
SK-OV-3 = system: SK-OV-3
Malme-3M = system: Malme-3M
RXF 393 = system: RXF 393
MOLT-4 = system: MOLT-4
SK-MEL-2 = system: SK-MEL-2
M19-MEL = system: M19-MEL
A498 = system: A498
NCI-H23 = system: NCI-H23
SW-620 = system: SW-620
SK-MEL-5 = system: SK-MEL-5
XF498 = system: XF498
LOX IMVI = system: LOX IMVI
SNB-75 = system: SNB-75
EKVX = system: EKVX
HCC 2998 = system: HCC 2998
RPMI-8226 = system: RPMI-8226
HOP-18 = system: HOP-18
HL-60 = system: HL-60
DLD-1 = system: DLD-1
LXFL 529 = system: LXFL 529
OVCAR-3 = system: OVCAR-3
KM12 = system: KM12
UACC-257 = system: UACC-257
COLO 205 = system: COLO 205
SK-MEL-28 = system: SK-MEL-28
UO-31 = system: UO-31
K562 = system: K562
SF-268 = system: SF-268
SR = system: SR
SN12C = system: SN12C
CCRF-CEM = system: CCRF-CEM
DU-145 = system: DU-145
MDA-MB-231 = system: MDA-MB-231
ACHN = system: ACHN
PC-3 = system: PC-3
MCF7 = system: MCF7
CAKI-1 = system: CAKI-1
786-0 = system: 786-0
NCI-H522 = system: NCI-H522
SNB-19 = system: SNB-19
MDA-MB-435 = system: MDA-MB-435
Hs-578T = system: Hs-578T
NCI/ADR-RES = system: NCI/ADR-RES
MDA-N = system: MDA-N
T47D = system: T47D
BT-549 = system: BT-549

SMILES: Nc1nc(Cl)cc(NCCCNc2cc(Cl)nc(N)n2)n1
- GI50 (OVCAR-4): > 100 µM (inactive)
- GI50 (IGROV-1): > 100 µM (inactive)
- GI50 (DMS-273): > 100 µM (inactive)
- GI50 (SF-539): > 100 µM (inactive)
- GI50 (TK-10): > 100 µM (inactive)
- GI50 (OVCAR-8): > 100 µM (inactive)
- GI50 (OVCAR-5): > 100 µM (inactive)
- GI50 (U-251): > 100 µM (inactive)
- GI50 (KM-20L2): > 100 µM (inactive)
- GI50 (NCI-H226): > 100 µM (inactive)
- GI50 (HOP-62): > 100 µM (inactive)
- GI50 (A549): > 100 µM (inactive)
- GI50 (HCT-116): > 100 µM (inactive)
- GI50 (UACC-62): > 100 µM (inactive)
- GI50 (M14): > 100 µM (inactive)
- GI50 (DMS-114): > 100 µM (inactive)
- GI50 (HOP-92): > 100 µM (inactive)
- GI50 (HT-29): > 100 µM (inactive)
- GI50 (RXF 631): > 100 µM (inactive)
- GI50 (NCI-H460): > 100 µM (inactive)
- GI50 (SF-295): > 100 µM (inactive)
- GI50 (HCT-15): > 100 µM
- GI50 (SK-OV-3): > 100 µM (inactive)
- GI50 (Malme-3M): > 100 µM (inactive)
- GI50 (RXF 393): > 100 µM (inactive)
- GI50 (MOLT-4): > 100 µM (inactive)
- GI50 (SK-MEL-2): > 100 µM (inactive)
- GI50 (M19-MEL): > 100 µM (inactive)
- GI50 (A498): > 100 µM (inactive)
- GI50 (NCI-H23): > 100 µM (inactive)
- GI50 (SW-620): > 100 µM (inactive)
- GI50 (SK-MEL-5): > 100 µM (inactive)
- GI50 (XF498): > 100 µM (inactive)
- GI50 (LOX IMVI): > 100 µM (inactive)
- GI50 (SNB-75): > 100 µM (inactive)
- GI50 (EKVX): > 100 µM (inactive)
- GI50 (HCC 2998): > 100 µM (inactive)
- GI50 (RPMI-8226): > 100 µM (inactive)
- GI50 (HOP-18): > 100 µM (inactive)
- GI50 (HL-60): > 100 µM (inactive)
- GI50 (DLD-1): > 100 µM (inactive)
- GI50 (LXFL 529): > 100 µM (inactive)
- GI50 (OVCAR-3): > 100 µM (inactive)
- GI50 (KM12): > 100 µM (inactive)
- GI50 (UACC-257): > 100 µM (inactive)
- GI50 (COLO 205): > 100 µM (inactive)
- GI50 (SK-MEL-28): > 100 µM (inactive)
- GI50 (UO-31): > 100 µM (inactive)
- GI50 (K562): > 100 µM (inactive)
- GI50 (SF-268): > 100 µM (inactive)
- GI50 (SR): > 100 µM (inactive)
- GI50 (SN12C): > 100 µM (inactive)
- GI50 (CCRF-CEM): > 100 µM (inactive)

SMILES: CCOC(=O)c1c(C)c(C)n2c1NC(=O)C2
- GI50 (OVCAR-4): > 100 µM (inactive)
- GI50 (IGROV-1): > 72.1 µM (inactive)
- GI50 (DU-145): 20.8 µM (inactive)
- GI50 (DMS-273): > 100 µM (inactive)
- GI50 (SF-539): > 57 µM (inactive)
- GI50 (TK-10): > 55.8 µM (inactive)
- GI50 (MDA-MB-231): 39 µM (inactive)
- GI50 (ACHN): > 76.2 µM (inactive)
- GI50 (PC-3): 36.8 µM (inactive)
- GI50 (OVCAR-8): > 70.3 µM (inactive)
- GI50 (OVCAR-5): > 100 µM (inactive)
- GI50 (MCF7): 25.2 µM (inactive)
- GI50 (U-251): > 48.1 µM (inactive)
- GI50 (KM-20L2): > 100 µM (inactive)
- GI50 (NCI-H226): > 100 µM (inactive)
- GI50 (HOP-62): > 66.5 µM (inactive)
- GI50 (CAKI-1): > 59.4 µM (inactive)
- GI50 (A549): > 82.6 µM (inactive)
- GI50 (HCT-116): 36.6 µM (inactive)
- GI50 (UACC-62): > 60.3 µM (inactive)
- GI50 (M14): > 53.7 µM (inactive)
- GI50 (DMS-114): > 100 µM (inactive)
- GI50 (HOP-92): > 91.4 µM (inactive)
- GI50 (HT-29): > 74.3 µM (inactive)
- GI50 (RXF 631): > 100 µM (inactive)
- GI50 (NCI-H460): > 53.1 µM (inactive)
- GI50 (SF-295): > 80 µM (inactive)
- GI50 (786-0): > 49.7 µM (inactive)
- GI50 (HCT-15): > 61.1 µM
- GI50 (SK-OV-3): > 100 µM (inactive)
- GI50 (Malme-3M): > 50.7 µM (inactive)
- GI50 (RXF 393): > 40.4 µM (inactive)
- GI50 (MOLT-4): > 100 µM (inactive)
- GI50 (SK-MEL-2): > 100 µM (inactive)
- GI50 (NCI-H522): > 43.7 µM (inactive)
- GI50 (M19-MEL): > 100 µM (inactive)
- GI50 (A498): > 100 µM (inactive)
- GI50 (NCI-H23): > 43 µM (inactive)
- GI50 (SW-620): > 54 µM (inactive)
- GI50 (SK-MEL-5): > 100 µM (inactive)
- GI50 (SNB-19): 55.3 µM (inactive)
- GI50 (XF498): 0.073 µM (active)
- GI50 (LOX IMVI): > 68.7 µM (inactive)
- GI50 (SNB-75): 39.1 µM (inactive)
- GI50 (EKVX): > 60.5 µM (inactive)
- GI50 (HCC 2998): 97.1 µM (inactive)
- GI50 (RPMI-8226): > 48 µM (inactive)
- GI50 (HOP-18): > 100 µM (inactive)
- GI50 (HL-60): > 100 µM (inactive)
- GI50 (DLD-1): > 100 µM (inactive)
- GI50 (LXFL 529): > 100 µM (inactive)
- GI50 (MDA-MB-435): > 100 µM (inactive)
- GI50 (OVCAR-3): > 64.4 µM (inactive)
- GI50 (Hs-578T): 20.3 µM (inactive)
- GI50 (KM12): > 100 µM (inactive)
- GI50 (UACC-257): > 60 µM (inactive)
- GI50 (COLO 205): > 73.6 µM (inactive)
- GI50 (SK-MEL-28): > 100 µM (inactive)
- GI50 (UO-31): > 64.3 µM (inactive)
- GI50 (NCI/ADR-RES): 20.4 µM (inactive)
- GI50 (K562): > 100 µM (inactive)
- GI50 (SF-268): > 42.8 µM (inactive)
- GI50 (MDA-N): > 100 µM (inactive)
- GI50 (SR): 37.2 µM (inactive)
- GI50 (T47D): 21.1 µM (inactive)
- GI50 (BT-549): 50.9 µM (inactive)
- GI50 (SN12C): > 54.3 µM (inactive)
- GI50 (CCRF-CEM): > 100 µM (inactive)
